In US8575201B2 (Boehringer Ingelheim International GmbH, priority 2010, dated 2013):

Experiments:
[1] = test system: biomarkers for myocardial infarction risk; settings: clinical trial; cited from earlier work
[2] = test system: synthesis of LTB4 in human whole blood; assay: Human whole blood LTB4 production inhibition assay; format: cell-based; settings: calcimycin stimulated, read-out: hWB LTB4 IC50
Method in brief: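 Heparinized human whole blood was preincubated with compound for 15 min at 37° C, then stimulated with calcimycin (20 μM final, in PBS pH 7.4) for a further 30 min at 37° C. Plasma LTB4 was quantified by antibody-based homogeneous time-resolved fluorescence.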

[3] = target: recombinant human FLAP protein (Homo sapiens (Human), UniProt P20292); assay: FLAP binding assay (Scintillation Proximity Assay, displacement of [125I]L-691,831); settings: read-out: FLAP SPA IC50
recombinant human FLAP protein, sequence (P20292 whole entry): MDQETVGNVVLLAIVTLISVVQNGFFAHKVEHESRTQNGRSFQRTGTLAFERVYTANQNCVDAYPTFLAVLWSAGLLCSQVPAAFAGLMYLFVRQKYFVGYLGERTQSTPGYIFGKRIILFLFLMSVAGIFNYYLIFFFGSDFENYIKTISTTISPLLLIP
Method in brief: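 Scintillation proximity displacement of an iodinated (125I) FLAP inhibitor by test compounds, using 100,000×g membrane fraction from lysed cells. Final beads 200 μg/well and protein 5 μg/well; plates shaken 2 h before reading.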

proteinuria = settings: clinical trial, human glomerulonephritis; cited from earlier work
atherosclerotic plaque [4] = settings: infusion, treated for four weeks; cited from earlier work
atherosclerotic plaque [5] = settings: oral dosing, high-fat diet from 2 to 6 months of age; cited from earlier work

O=C(O)[C@@H](c1ccc(OCc2ccc3ccccc3n2)cc1)C1CCCC1 [DG-031]
effect on biomarkers for myocardial infarction risk [1]: dose-dependent suppression of several biomarkers

CN(C)C(=O)Cn1cc(-c2nc(C3(c4ccc(-c5ccc(N)nc5)nc4)CCC3)no2)cn1 [Example 163, 2-(4-{3-[1-(6′-amino-[2,3′]bipyridinyl-5-yl)-cyclobutyl]-[1,2,4]oxadiazol-5-yl}-pyrazol-1-yl)-N,N-dimethyl-acetamide]
IC50 [2]: 0.3 µM | IC50 [3]: 0.11 µM

CN(C)C(=O)Cn1cc(-c2nc(C3(c4ccc(-c5cnc(N)cn5)nc4)CCC3)no2)cn1 [Example 164, 2-[4-(3-{1-[6-(5-amino-pyrazin-2-yl)-pyridin-3-yl]-cyclobutyl}-[1,2,4]oxadiazol-5-yl)-pyrazol-1-yl]-N,N-dimethyl-acetamide]
IC50 [2]: 0.17 µM | IC50 [3]: 0.043 µM

CNc1ncc(-c2ccc(C3(c4noc(-c5cnn(CC(C)(C)O)c5)n4)CCC3)cn2)cn1 [Example 165, 2-Methyl-1-[4-(3-{1-[6-(2-methylamino-pyrimidin-5-yl)-pyridin-3-yl]-cyclobutyl}-[1,2,4]oxadiazol-5-yl)-pyrazol-1-yl]-propan-2-ol]
IC50 [2]: 0.28 µM | IC50 [3]: 0.073 µM

N#Cc1cc(-c2ccc(C3(c4noc(-c5cnn(C6COC6)c5)n4)CCC3)cn2)cnc1N [Example 167, 6′-Amino-5-{1-[5-(1-oxetan-3-yl-1H-pyrazol-4-yl)-[1,2,4]oxadiazol-3-yl]-cyclobutyl}-[2,3′]bipyridinyl-5′-carbonitrile]
IC50 [2]: 0.68 µM | IC50 [3]: 0.14 µM

CNc1cnc(-c2ccc(C3(c4noc(-c5cnn(C)c5)n4)CCC3)cn2)cn1 [Example 168, Methyl-[5-(5-{1-[5-(1-methyl-1H-pyrazol-4-yl)-[1,2,4]oxadiazol-3-yl]-cyclobutyl}-pyridin-2-yl)-pyrazin-2-yl]-amine]
IC50 [2]: 0.099 µM | IC50 [3]: 0.033 µM

COCCn1cc(-c2nc(C3(c4ccc(-c5cnc(N)cn5)nc4)CCC3)no2)cn1 [Example 171, 5-[5-(1-{5-[1-(2-Methoxy-ethyl)-1H-pyrazol-4-yl]-[1,2,4]oxadiazol-3-yl}-cyclobutyl)-pyridin-2-yl]-pyrazin-2-ylamine]
IC50 [2]: 0.076 µM | IC50 [3]: 0.05 µM

Cn1cc(-c2nc(C3(c4ccc(-c5cnc(N)cn5)nc4)CCC3)no2)cn1 [Example 174, 5-(5-{1-[5-(1-Methyl-1H-pyrazol-4-yl)-[1,2,4]oxadiazol-3-yl]-cyclobutyl}-pyridin-2-yl)-pyrazin-2-ylamine]
IC50 [2]: 0.074 µM | IC50 [3]: 0.039 µM

Cc1nc(N)ncc1-c1ccc(C2(c3noc(-c4cnn(CC(C)(C)O)c4)n3)CCC2)cn1 [Example 175, 1-[4-(3-{1-[6-(2-Amino-4-methyl-pyrimidin-5-yl)-pyridin-3-yl]-cyclobutyl}-[1,2,4]oxadiazol-5-yl)-pyrazol-1-yl]-2-methyl-propan-2-ol]
IC50 [2]: 0.62 µM | IC50 [3]: 0.83 µM

CNc1cnc(-c2ccc(C3(c4noc(-c5cnn(C6COC6)c5)n4)CCC3)cn2)cn1 [Example 176, Methyl-[5-(5-{1-[5-(1-oxetan-3-yl-1H-pyrazol-4-yl)-[1,2,4]oxadiazol-3-yl]-cyclobutyl}-pyridin-2-yl)-pyrazin-2-yl]-amine]
IC50 [2]: 0.073 µM | IC50 [3]: 0.023 µM

CNc1cnc(-c2ccc(C3(c4noc(-c5cnn(CC(C)(C)O)c5)n4)CCC3)cn2)cn1 [Example 177, 2-Methyl-1-[4-(3-{1-[6-(5-methylamino-pyrazin-2-yl)-pyridin-3-yl]-cyclobutyl}-[1,2,4]oxadiazol-5-yl)-pyrazol-1-yl]-propan-2-ol]
IC50 [2]: 0.16 µM | IC50 [3]: 0.032 µM

CC(C)(C)Sc1c(CC(C)(C)C(=O)O)n(Cc2ccc(Cl)cc2)c2ccc(OCc3ccc4ccccc4n3)cc12 [MK-591]
effect on proteinuria (proteinuria): reduce proteinuria

CC(C)c1ccc2c(c1)c(SC(C)(C)C)c(CC(C)(C)C(=O)O)n2Cc1ccc(Cl)cc1 [MK-886]
decrease in plaque area in the aortic root (atherosclerotic plaque [4]): ~40% | decrease in plaque coverage in the aorta (atherosclerotic plaque [5]): 56% | decrease in plaque coverage in the aortic root (atherosclerotic plaque [5]): 43%
